System: fibrin clot
Assay: Structural profile of fibrin clot, Protocol C on STA-R with tissue factor and plasminogen activator (TF+t-PA)
Assay type: biochemical
Experimental: Protocol C (With t-PA, Method on STA-R® with Tissue Factor and Plasminogen Activator):
To 8 cuvettes of the STA-R® Evolution Expert Series automated device (Stago), are added, simultaneously by the instrument: • 200 μl of a sample of pure plasma, • 50 μl of a [TF 2 to 5 pM final concentration+PL 4 μM final concentration+tPA 0.1 to 0.2 μg/ml final concentration] mixture.
The automated device agitates by means of the arm, and carries out an incubation for 300 seconds at 37° C.
It then adds 50 μl of CaCl2 at a final concentration of 16.7 mM, and agitates by means of the needle of the initiating reagent.
Finally, the automated device measures the number of protofibrils at the 2 wavelengths of 540 nm and 780 nm as a function of time for 30 minutes.
To 8 cuvettes of the STA-R® Evolution Expert Series automated device (Stago), are added, simultaneously by the instrument: • 200 μl of sample of pure plasma from 9 patients with normal hemostatis results, of a frozen plasma deficient in PAI-1, of 3 control plasmas at 0, 20 and 40 AU/ml of PAI-1, of a protein S-depleted plasma, of a TFPI-depleted plasma and of 3 plasmas with an overload of rivaroxaban at 0, 100 and 200 ng/ml, • 50 μl of a [TF 2 to 5 pM final concentration+PL 4 μM final concentration+t-PA 150 ng/ml] mixture.
It then adds 50 μl of CaCl2 at a final concentration of 16.7 mM, and agitates by means of the needle.

O=C(NC[C@H]1CN(c2ccc(N3CCOCC3=O)cc2)C(=O)O1)c1ccc(Cl)s1 [rivaroxaban]
downward slope of the protofibril plateau (plasma containing rivaroxaban, TF + t-PA 150 ng/ml): all the greater the faster the lysis | protofibril plateau (duration), reflecting the stability of the clot (plasmas with an overload of rivaroxaban at 0, 100 and 200 ng/ml, TF 2 to 5 pM, t-PA 150 ng/ml, 30 minutes): shortened proportionally to the concentration

From US20170234853A1, “METHOD FOR DETERMINING THE STRUCTURAL PROFILE OF A FIBRIN CLOT REFLECTING THE STABILITY THEREOF, IN ORDER TO PREDICT THE RISK OF BLEEDING, THROMBOSIS OR RETHROMBOSIS” (DIAGNOSTICA STAGO, priority 2014, published 2017)
